In patent publication US4230719A, “Novel 2-[4-(3-methyl-2-thienyl)phenyl]propionic acid and pharmaceutically acceptable salt thereof and method for treating symptoms of inflammation and pain” (Toyama Chemical Co., Ltd., priority 1977, dated 1980):
Read-outs that look alike come from different tables or passages of the source.

Columns and labels:
[1] = tested on: threshold value of pain due to pressure stimuli (tail); conditions: for Analgesic effect: 100% = threshold raised by 160 g; for ED50: Mus musculus, po
[2] = tested on: Carrageenin-induced edema; experiment: Carrageenin-induced edema; assay type: in vivo, rat (Donryu strain, male); conditions: Rattus norvegicus, po, read-out: Inhibitory percent of swelling; for inhibition in vivo at 15 mg/kg: 15 mg/kg p.o.
Procedure: (iii) Carrageenin-induced edema
Each of the 6 Donryu strain male rats per group (each weighing about 140 g), which had been fasted overnight, was orally loaded with 4 ml of water and, after 30 minutes, the test compound was orally administered thereto. Thirty minutes thereafter, a 1%(Wt/V) solution of carrageenin in physiological saline was subcutaneously injected into the subplantar region of the left hind paw. At a time interval of one hour, starting from the end of the first hour till the end of the fifth hour after injection of carrageenin, the paw volume was measured by means of a manometer and pressure transducer. By comparison with the percent increase in swelling of the control group of rats to which a 0.5%(V/V) solution of Tween 80 had been administered, the mean inhibitory percent in 5 hours of swelling was calculated by the following equation: [formula]

[3] = tested on: Vascular permeability; experiment: Vascular permeability in mice (Whittle's method); assay type: in vivo, mouse (ddY strain, male); conditions: for Inhibition: dye leakage; for ED30: po
Procedure: (i) Vascular permeability in mice (Whittle's method)
The test compound was orally administered to each ddY strain male mouse (weighing each about 20 g). After 20 minutes, 0.1 ml/10 g of a 4%(Wt/V) solution of Pontamine Sky Blue in physiological saline was intravenously injected and 10 minutes thereafter 0.1 ml/10 g of a 0.7%(V/V) solution of acetic acid in physiological saline was injected intraperitoneally. After 30 minutes, the mice were killed by suffocation with chloroform. After immediate laparotomy, the dye leaked into the peritoneal cavity was washed out with distilled water. The washings were made up with water to 30 ml and the absorbance at 620 mμ was measured. The amount of leaked dye per 20 g of mouse weight was compared.

[4] = tested on: phenylbenzoquinone writhing; experiment: Analgesic activity, phenylbenzoquinone method in mouse; assay type: in vivo, mouse (ddY strain, male); conditions: for Frequency of writhing, mean ± S.E.: during 10 minutes
Procedure: (i) Phenylbenzoquinone method in mouse
The test compound was orally administered to each ddY strain male mouse (weighing 22±2 g; 8 mice per group). […] The frequency of writhing during 10 minutes from 5-minutes after the injection of phenylbenzoquinone was measured and compared with that of a control group to which a 0.5% Tween 80 solution was administered. The percent inhibition was calculated by the following equation: [formula]

[5] = in vivo; conditions: rat, po
[6] = tested on: Vascular permeability; experiment: Vascular permeability in rat (Whittle's method); assay type: in vivo, rat (Wistar strain, male)
Procedure: (ii) Vascular permeability in rat (Whittle's method)
The test compound was orally administered to each Wistar strain male rat (weighing about 150 g) which had been fasted overnight. After 55 minutes, 0.5 ml of a 0.5% Evans Blue solution was intravenously injected. Five minutes thereafter, 0.2 ml/100 g of a 3%(V/V) acetic acid solution was intraperitoneally injected. After 60 minutes from the injection of the acetic acid solution, the rats were killed by suffocation with chloroform. After immediate laparotomy, the dye leaked into the peritoneal cavity was washed out with physiological saline. The washings were made up with the saline to 30 ml and the absorbance at 640 mμ was measured to examine the effect of the test compounds by comparing the amounts of leaked dye per rat with one another.

[7] = tested on: Phenol Red (PSP) excretion; experiment: Uricosuric action (a), inhibition of Phenol Red (PSP) excretion; assay type: in vivo, rabbit (male); conditions: dose not stated
Procedure: (a) The action was examined by the method of B. B. Brodie et al. who reported that the inhibitory action on Phenol Red (PSP) excretion correlates with the uricosuric action [Proc. Soc. Exp. Biol. Med., 86, 884 (1954)]. To a male rabbit weighing 2 to 3 kg was intraperitoneally administered the test compound. After 30 minutes, 75 mg/kg of a Phenol Red suspension was injected into the pinna vein of the rabbit and 30 minutes thereafter a blood sample was drawn from the pinna vein. The blood sample was centrifuged and the serum was diluted with physiological saline. The diluted serum was treated with 0.1 N NaOH to develop the color. The concentration of Phenol Red in the serum was determined from the absorbance at 560 mμ.

[8] = tested on: pain threshold (brewer's yeast, hind paw); experiment: Analgesic activity, Randall-Selitto method in rat; assay type: in vivo, rat (Wistar strain, male); conditions: for Inhibition: 100% = pain threshold raised by 150 g
Procedure: (ii) Randall-Selitto method in rat
After one hour, the test compound was orally administered. One hour thereafter, the pain threshold value was measured four times at a time interval of one hour. The mean value of four values obtained was taken as the pain threshold value of each group of rats. The activity of the drug was assumed to be 100% when the pain threshold value was raised by 150 g.

[9] = tested on: fever (Mycobacterium butyricum); experiment: Antipyretic action; assay type: in vivo, rat (Wistar strain, female)
Procedure: A suspension (0.6 mg/0.1 ml) of killed and dried Mycobacterium butyricum in liquid paraffin was subcutaneously injected in an amount of 0.1 ml into the subplantar region of the hind paw of each Wistar strain female rat weighing about 180 g. After 14 hours, the fevered rats were divided into groups, and each test compound was orally administered to each group to examine the antipyretic effect.

[10] = Mus musculus, po, 10 min, writhing, 20 mg/kg p.o., read-out: Inhibition
[11] = Mus musculus, po, 10 min, writhing, 40 mg/kg p.o.
[12] = Mus musculus, po, 10 min, read-out: Inhibition

CC(=O)Oc1ccccc1C(=O)O [Aspirin]
Analgesic effect ([1]; 200 mg/kg p.o.): 25%
Analgesic effect ([1]; 800 mg/kg p.o.): 53%
ED50 [1]: 710 mg/kg

CCc1ccsc1-c1ccc(C(C)C(=O)O)cc1 (stereo not shown) [Compound C1]
inhibition in vivo at 5 mg/kg ([2]; 5 mg/kg p.o., mean in 5 hours): 9.3%
Dye leakage (P.S.B.) mean ± S.E. ([3]; 10 mg/kg p.o.): 316.9 ± 29.0 μg/20g
Dye leakage (P.S.B.) mean ± S.E. ([3]; 20 mg/kg p.o.): 245.9 ± 15.4 μg/20g
Inhibition ([3]; 10 mg/kg p.o.): 18.0%
Inhibition ([3]; 20 mg/kg p.o.): 36.4%
ED30 ([3]; mouse, read-out: ED30): 16 mg/kg
Frequency of writhing, mean ± S.E. ([4]; 10 mg/kg p.o.): 23.6 ± 5.0
Frequency of writhing, mean ± S.E. ([4]; 20 mg/kg p.o.): 23.7 ± 4.4
Frequency of writhing, mean ± S.E. ([4]; 40 mg/kg p.o.): 23.1 ± 3.9
inhibition in vivo at 10 mg/kg ([4]; Mus musculus, po, 10 min, writhing, 10 mg/kg p.o., read-out: Inhibition): 0%
inhibition in vivo at 20 mg/kg [4, 10]: -0.4%
inhibition in vivo at 40 mg/kg [4, 11]: 2.1%
ED50 ([4]; po, mouse, read-out: ED50): > 50 mg/kg
LD50 [5]: > 400 mg/kg

CCCc1ccsc1-c1ccc(C(C)C(=O)O)cc1 (stereo not shown) [Compound C4]
inhibition in vivo at 5 mg/kg ([2]; 5 mg/kg p.o., mean in 5 hours): -7.2%
inhibition in vivo at 15 mg/kg ([2]; mean in 5 hours): -2.7%
Frequency of writhing, mean ± S.E. ([4]; 40 mg/kg p.o.): 24.0 ± 2.6
inhibition in vivo at 40 mg/kg [4, 11]: -1.7%
ED50 ([4]; po, mouse, read-out: ED50): > 50 mg/kg

Cc1csc(-c2ccc(C(C)C(=O)O)cc2)c1 (stereo not shown) [Compound C5]
inhibition in vivo at 3 mg/kg ([2]; 3 mg/kg p.o., mean in 5 hours): -25.7%
inhibition in vivo at 10 mg/kg ([2]; 10 mg/kg p.o., mean in 5 hours): 0.7%
Frequency of writhing, mean ± S.E. ([4]; 40 mg/kg p.o.): 23.4 ± 1.9
inhibition in vivo at 40 mg/kg [4, 11]: 0.8%
ED50 ([4]; po, mouse, read-out: ED50): > 50 mg/kg

Cc1ccc(-c2ccc(C(C)C(=O)O)cc2)s1 (stereo not shown) [Compound C6]
inhibition in vivo at 5 mg/kg ([2]; 5 mg/kg p.o., mean in 5 hours): 19.1%
inhibition in vivo at 15 mg/kg ([2]; mean in 5 hours): 31.4%
Frequency of writhing, mean ± S.E. ([4]; 40 mg/kg p.o.): 18.2 ± 2.8
inhibition in vivo at 40 mg/kg [4, 11]: 22.9%
ED50 ([4]; po, mouse, read-out: ED50): > 50 mg/kg

Cc1cc(-c2ccc(C(C)C(=O)O)cc2)sc1C (stereo not shown) [Compound C7]
inhibition in vivo at 5 mg/kg ([2]; 5 mg/kg p.o., mean in 5 hours): -21.6%
inhibition in vivo at 15 mg/kg ([2]; mean in 5 hours): 15.1%
Frequency of writhing, mean ± S.E. ([4]; 40 mg/kg p.o.): 19.1 ± 3.8
inhibition in vivo at 40 mg/kg [4, 11]: 19.1%
ED50 ([4]; po, mouse, read-out: ED50): > 50 mg/kg

CC(C(=O)O)c1ccc(-c2ccc(Cl)s2)cc1 (stereo not shown) [Compound C8]
inhibition in vivo at 5 mg/kg ([2]; 5 mg/kg p.o., mean in 5 hours): 17%
inhibition in vivo at 15 mg/kg ([2]; mean in 5 hours): 41.9%
Frequency of writhing, mean ± S.E. ([4]; 20 mg/kg p.o.): 17.5 ± 4.2
Frequency of writhing, mean ± S.E. ([4]; 40 mg/kg p.o.): 6.3 ± 0.6
inhibition in vivo at 20 mg/kg [4, 10]: 25.8%
inhibition in vivo at 40 mg/kg [4, 11]: 73.3%
ED50 ([4]; po, mouse, read-out: ED50): 27 mg/kg

O=C(O)Cc1ccc(-c2cccs2)cc1 [Compound C9]
inhibition in vivo at 5 mg/kg ([2]; 5 mg/kg p.o., mean in 5 hours): 15.1%
inhibition in vivo at 15 mg/kg ([2]; mean in 5 hours): 24.1%
Frequency of writhing, mean ± S.E. ([4]; 40 mg/kg p.o.): 13.9 ± 1.6
inhibition in vivo at 40 mg/kg [4, 11]: 41.1%
ED50 ([4]; po, mouse, read-out: ED50): > 40 mg/kg

CC(C)Cc1ccc(C(C)C(=O)O)cc1 (stereo not shown) [Ibuprofen]
Analgesic effect ([1]; 20 mg/kg p.o.): 36%
Analgesic effect ([1]; 80 mg/kg p.o.): 60%
ED50 [1]: 44.5 mg/kg

COc1ccc2c(c1)c(CC(=O)O)c(C)n2C(=O)c1ccc(Cl)cc1 [Indomethacin]
inhibition in vivo at 1 mg/kg ([2]; 5 h): 6.4%
inhibition in vivo at 5 mg/kg ([2]; 5 h): 46.2%
Inhibition ([6]; 0.5 mg/kg p.o.): 20.7%
Inhibition ([6]; 1 mg/kg p.o.): 32.5%
Inhibition ([6]; 5 mg/kg p.o.): 47.7%
ED30 ([6]; Rattus norvegicus, po): 1 mg/kg
Uricosuric action (in words) [7]: very weak
Inhibition ([8]; 1 mg/kg p.o.): 27.4%
Inhibition ([8]; 5 mg/kg p.o.): 41.6%
Inhibition ([8]; 25 mg/kg p.o.): 75.6%
ED50 ([8]; Rattus norvegicus, po): 6.3 mg/kg
Dye leakage (P.S.B.) mean ± S.E. ([3]; 5 mg/kg p.o.): 240.5 ± 25.9 μg/20g
Dye leakage (P.S.B.) mean ± S.E. ([3]; 10 mg/kg p.o.): 204.5 ± 17.6 μg/20g
Dye leakage (P.S.B.) mean ± S.E. ([3]; 20 mg/kg p.o.): 176.4 ± 17.0 μg/20g
ED30 ([3]; Mus musculus): 6.8 mg/kg
Inhibition ([3]; 5 mg/kg p.o.): 25.0%
Inhibition ([3]; 10 mg/kg p.o.): 36.3%
Inhibition ([3]; 20 mg/kg p.o.): 45.0%
Analgesic effect ([1]; 5 mg/kg p.o.): 44%
Analgesic effect ([1]; 20 mg/kg p.o.): 80%
ED50 [1]: 6 mg/kg
Frequency of writhing, mean ± S.E. ([4]; 5 mg/kg p.o.): 13.8 ± 2.9
Frequency of writhing, mean ± S.E. ([4]; 10 mg/kg p.o.): 9.1 ± 3.1
Frequency of writhing, mean ± S.E. ([4]; 20 mg/kg p.o.): 5.4 ± 2.1
ED50 ([4]; Mus musculus, po): 7 mg/kg
inhibition in vivo at 5 mg/kg [4, 12]: 41.5%
inhibition in vivo at 10 mg/kg [4, 12]: 61.4%
inhibition in vivo at 20 mg/kg [4, 12]: 77.1%
Mean decrease in temp. ([9]; 0.2 mg/kg p.o.): 0.25 °C
Mean decrease in temp. ([9]; 1 mg/kg p.o.): 0.87 °C
Mean decrease in temp. ([9]; 5 mg/kg p.o.): 1.35 °C
ED1.0 ([9]; Rattus norvegicus, po): 1.06 mg/kg
LD50 [5]: 16.2 mg/kg

CC(C(=O)O)c1cccc(C(=O)c2ccccc2)c1 (stereo not shown) [Ketoprofen]
Analgesic effect ([1]; 10 mg/kg p.o.): 40%
Analgesic effect ([1]; 40 mg/kg p.o.): 61%
ED50 [1]: 19.5 mg/kg
